Reference: publication PMC6032158, “Structure–Activity Relationship of Piplartine and Synthetic Analogues against Schistosoma mansoni and Cytotoxicity to Mammalian Cells” (International Journal of Molecular Sciences, 2018)
Entries after “also recorded” stand apart in the source; their conditions may differ.

Columns and labels:
[1] = test system: mouse BALB/cN macrophage (J774A.1) cell line; assay: Cell viability by flow cytometry in macrophages; details: 24 h, 25, 100 and 400 µg/mL, vs DMEM control
[2] = test system: 49-day-old S. mansoni adult worms; assay: In vitro experiments with adult worms of S. mansoni (mortality, motor activity); format: cell-based, Schistosoma mansoni; details: for Dead Worms (%) F / Motor Activity Reduction (%) Significant F / Motor Activity Reduction (%) Slight F: female worms; for Dead Worms (%) M / Motor Activity Reduction (%) Significant M / Motor Activity Reduction (%) Slight M: male worms
Summary of the method: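 BH-strain worm pairs recovered from hamsters 49 days post-infection, washed in RPMI 1640 with penicillin, streptomycin and amphotericin B, and cultured as mated pairs with or without drug for 96 h. Motor activity changes and death were scored by microscopy.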

[3] = test system: S. mansoni schistosomula and adult worms; set-up: method as in PMID 20832410, PMID 22796749; details: cited from earlier work
[4] = test system: murine fibroblast (NIH-3T3) cells; assay: MTT cytotoxicity assay in murine fibroblasts; format: cell-based; set-up: Emax: dose or concentration left out as unconfirmed
Summary of the method: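 NIH-3T3 cells exposed 24 h to samples at 25–800 µg/mL in 3% DMSO, with 3% DMSO as control. MTT (5 mg/mL stock) added for 2 h, formazan dissolved in DMSO, absorbance read at 595 nm.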

J774A.1 cells = assay: Cell death mechanism, annexin-V FITC / propidium iodide staining by flow cytometry; format: cell-based, mouse; details: J774A.1, 24 h; piplartine 25 μg/mL, 14B 400 μg/mL
Experimental: Cells were then treated with 2 µL of annexin-V FITC (Apoptosis Detection Kit; BD Biosciences, Franklin Lakes, NJ, USA) and 2 µL of propidium iodide (PI, 50 µg/mL) for 15 min in the dark at room temperature. Next, 100 µL binding buffer was added and samples were analysed by flow cytometry (BD LSFortessa^TM, Franklin Lakes, NJ, USA). A total of 20,000 events were collected per sample.

Q: What does the source list for COc1cc(/C=C/C(=O)N2CCC=CC2=O)cc(OC)c1OC [Piplartine, 3,4,5-trimethoxycinnamoyl-N-dihydropyridin-2-one]?
A: effect on J774A.1 cell viability (in words) [1]: significantly (p < 0.05) affected cell viability at concentrations of 25 and 100 µg/mL; effect on J774A.1 cell viability (in words) ([1]; listed as piplartine): more toxic to mammalian cells than the analogues; Dead Worms (%) F ([2]; 5 µM, 24 h): 0%; Motor Activity Reduction (%) Significant F ([2]; 5 µM, 24 h): 0%; Motor Activity Reduction (%) Slight F ([2]; 5 µM, 24 h): 100%; Dead Worms (%) M ([2]; 5 µM, 24 h): 0%; Motor Activity Reduction (%) Significant M ([2]; 5 µM, 24 h): 0%; Motor Activity Reduction (%) Slight M ([2]; 5 µM, 24 h): 100%; Dead Worms (%) F ([2]; 5 µM, 48 h): 0%; Motor Activity Reduction (%) Significant F ([2]; 5 µM, 48 h): 0%; Motor Activity Reduction (%) Slight F ([2]; 5 µM, 48 h): 100%; Dead Worms (%) M ([2]; 5 µM, 48 h): 0%; Motor Activity Reduction (%) Significant M ([2]; 5 µM, 48 h): 0%; Motor Activity Reduction (%) Slight M ([2]; 5 µM, 48 h): 100%; Dead Worms (%) F ([2]; 5 µM, 72 h): 0%; Motor Activity Reduction (%) Significant F ([2]; 5 µM, 72 h): 0%; Motor Activity Reduction (%) Slight F ([2]; 5 µM, 72 h): 100%; Dead Worms (%) M ([2]; 5 µM, 72 h): 0%; Motor Activity Reduction (%) Significant M ([2]; 5 µM, 72 h): 0%; Motor Activity Reduction (%) Slight M ([2]; 5 µM, 72 h): 100%; Dead Worms (%) F ([2]; 5 µM, 96 h): 60%; Motor Activity Reduction (%) Significant F ([2]; 5 µM, 96 h): 60%; Motor Activity Reduction (%) Slight F ([2]; 5 µM, 96 h): 0%; Dead Worms (%) M ([2]; 5 µM, 96 h): 60%; Motor Activity Reduction (%) Significant M ([2]; 5 µM, 96 h): 60%; Motor Activity Reduction (%) Slight M ([2]; 5 µM, 96 h): 0%; Dead Worms (%) F ([2]; 10 µM, 24 h): 100%; Motor Activity Reduction (%) Significant F ([2]; 10 µM, 24 h): 100%; Motor Activity Reduction (%) Slight F ([2]; 10 µM, 24 h): 0%; Dead Worms (%) M ([2]; 10 µM, 24 h): 100%; Motor Activity Reduction (%) Significant M ([2]; 10 µM, 24 h): 100%; Motor Activity Reduction (%) Slight M ([2]; 10 µM, 24 h): 0%; Dead Worms (%) F ([2]; 10 µM, 48 h): 100%; Motor Activity Reduction (%) Significant F ([2]; 10 µM, 48 h): 100%; Motor Activity Reduction (%) Slight F ([2]; 10 µM, 48 h): 0%; Dead Worms (%) M ([2]; 10 µM, 48 h): 100%; Motor Activity Reduction (%) Significant M ([2]; 10 µM, 48 h): 100%; Motor Activity Reduction (%) Slight M ([2]; 10 µM, 48 h): 0%; Dead Worms (%) F ([2]; 10 µM, 72 h): 100%; Motor Activity Reduction (%) Significant F ([2]; 10 µM, 72 h): 100%; Motor Activity Reduction (%) Slight F ([2]; 10 µM, 72 h): 0%; Dead Worms (%) M ([2]; 10 µM, 72 h): 100%; Motor Activity Reduction (%) Significant M ([2]; 10 µM, 72 h): 100%; Motor Activity Reduction (%) Slight M ([2]; 10 µM, 72 h): 0%; Dead Worms (%) F ([2]; 10 µM, 96 h): 100%; Motor Activity Reduction (%) Significant F ([2]; 10 µM, 96 h): 100%; Motor Activity Reduction (%) Slight F ([2]; 10 µM, 96 h): 0%; Dead Worms (%) M ([2]; 10 µM, 96 h): 100%; Motor Activity Reduction (%) Significant M ([2]; 10 µM, 96 h): 100%; Motor Activity Reduction (%) Slight M ([2]; 10 µM, 96 h): 0%; concentrations active against S. mansoni ([2]; adult worms): 5 to 10 µM; activity against S. mansoni adult worms (in words) ([2]; analogues 50, 25, 10 and 5 μM, piplartine 5 and 10 μM, up to 96 h): showed activity against the parasite 24 h after incubation; concentration with in vitro schistosomicidal activity [3]: 10 µM; effect on NIH-3T3 cell viability (in words) ([4]; MTT, 24 h exposure, 25 to 800 µg/mL): decreased cell viability after 24 h of exposure, exhibiting considerable toxicity; also recorded: showed toxicity at all concentrations tested; Emax ([4]; Mus musculus, NIH3T3, 24 h): 96.94 ± 0.12%; annexin-V FITC staining (apoptosis marker) vs DMEM negative control (in words) (J774A.1 cells): significant (p < 0.05) increase in annexin-V FITC staining
